This is an account of results in patent US9127044B2, “Cyclic depsipeptides” (NOVARTIS AG, priority 2007, dated 2015).

Like-named read-outs stand apart in the source and are kept apart here. Where a SMILES comes first, the peptide text is derived from it. Bridges are numbered along the chain shown (N, C = ends). [ ]: non-standard residue; d: D form. The star is where a group is joined. NMeY = CN[C@@H](Cc1ccc(O)cc1)C(=O)O; Isovaleryl = CC(C)CC(=O)* Some results are limits rather than exact numbers.

The target in one assay is human kallikrein 7 (Homo sapiens, UniProt P49862). Kind of assay: Kallikrein-7 inhibitory activity in vitro (fluorescence-quenched substrate). The assay is classed as biochemical. How it is done:
(§1) IC50 for human kallikrein can be measured using the fluorescence-quenched substrate Ac-Glu-Asp(EDANS)-Lys-Pro-Ale-Leu-Phe^Arg-Leu-Gly-Lys(DABCYL)-Glu-NH2 (where ^ indicates the scissile bond, identified by MS analysis) which can be purchased from Biosyntan (Berlin, Germany). Enzymatic reactions are conducted in 50 mM sodium citrate buffer at pH 5.6 containing 150 mM NaCl and 0.05% (w/v) CHAPS. For the determination of IC50 values the assay is performed at room temperature in 384-well plates. All final assay volumes are 30 μl. Test compounds are dissolved in 90% (v/v) DMSO/water and diluted in water (containing 0.05% (w/v) CHAPS) to 3-times the desired assay concentration. The 11 final compound concentrations are: 0.3 nM, 1 nM, 3 nM, 10 nM, 30 nM, 100 nM, 300 nM, 1 μM, 3 μM, 10 μM and 30 μM. For each assay, 10 μl water/CHAPS (±test compound) are added per well, followed by 10 μl protease solution (diluted with 1.5× assay buffer). The protease concentration in final assay solution is 0.2 nM (according to the enzyme concentrations determined by the Bradford method). After 1 hour of incubation at room temperature, the reaction is started by addition of 10 μl substrate solution (substrate dissolved in 1.5× assay buffer, final concentration is 2 μM). […] The IC50 value is calculated from the plot of percentage of inhibition vs. inhibitor concentration using non-linear regression analysis software (XLfit, Vers. 4.0; ID Business Solution Ltd., Guildford, Surrey, UK).
The fluorescence-quenched substrate Ac-Glu-Asp(EDANS)-Lys-Pro-Ale-Leu-Phe^Arg-Leu-Gly-Lys(DABCYL)-Glu-NH2 (where ^ indicates the scissile bond, identified by MS analysis) is purchased from Biosyntan (Berlin, Germany) and kept as a 5 mM stock solution in DMSO at −20° C. All other chemicals are of analytical grade.
Enzymatic reactions are conducted in 50 mM sodium citrate buffer at pH 5.6 containing 150 mM NaCl and 0.05% (w/v) CHAPS.
All protein and peptide containing solutions are handled in siliconized tubes (Life Systems Design, Merenschwand, Switzerland). The compound solutions as well as the enzyme and the substrate solutions are transferred to the 384-well plates (black Cliniplate; cat. no. 95040020 Labsystems Oy, Finland) by means of a CyBi-Well 96-channel pipettor (CyBio AG, Jena, Germany).
(§2) For fluorescence intensity (FI) measurements an Ultra Evolution reader (TECAN, Maennedorf, Switzerland) is used. The instrument is equipped with a combination of a 350 nm (20 nm bandwidth) and a 500 nm (25 nm bandwidth) bandpass filter for fluorescence excitation and emission acquisition, respectively. To increase the signal:background ratio, an appropriate dichroic mirror is employed. The optical filters and the dichroic mirror are purchased from TECAN. The fluorophores in each well are excited by three flashes per measurement.
as §1, with “For” for “IC50 for human kallikrein can be measured using the fluorescence-quenched substrate Ac-Glu-Asp(EDANS)-Lys-Pro-Ale-Leu-Phe^Arg-Leu-Gly-Lys(DABCYL)-Glu-NH2 (where ^ indicates the scissile bond, identified by MS analysis) which can be purchased from Biosyntan (Berlin, Germany). Enzymatic reactions are conducted in 50 mM sodium citrate buffer at pH 5.6 containing 150 mM NaCl and 0.05% (w/v) CHAPS. For”, “volumes were” for “volumes are”, “concentration was” for “concentration is”

Assay [1] addresses T1, Human neutrophil elastase (Homo sapiens, UniProt P08246).
T1 construct: purchased Elastin Products Company, Inc. (EPC, Owensville, USA) SE563
T1 sequence (P08246 30-267): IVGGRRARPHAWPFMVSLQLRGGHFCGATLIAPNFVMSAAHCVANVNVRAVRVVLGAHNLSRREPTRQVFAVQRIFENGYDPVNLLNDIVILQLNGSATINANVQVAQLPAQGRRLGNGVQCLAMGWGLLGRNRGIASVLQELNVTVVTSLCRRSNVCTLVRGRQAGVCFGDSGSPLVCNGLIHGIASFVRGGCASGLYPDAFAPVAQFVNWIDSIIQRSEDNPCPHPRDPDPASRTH
Nature of the assay: HNE inhibitory activity in vitro (fluorescence-quenched substrate). The assay is classed as biochemical. How it is done: Human neutrophil elastase (cat. no. SE563) is purchased from Elastin Products Company, Inc. (EPC, Owensville, USA). The dry powder (purity >95% stated by the supplier) was dissolved in 20 mM sodium acetate buffer, pH 5.0, 50% (v/v) glycerol, and frozen at −80° C. in aliquots.
The fluorescence-quenched substrate (DABCYL-Ser-Glu-Val^Asn-Leu-Asp-Ala-Glu-Phe-EDANS, where ^ indicates the scissile bond, identified by MS analysis) was purchased from Bachem AG (Bubendorf, Switzerland), and kept as a 5 mM stock solution in DMSO at −20° C. All other chemicals were of analytical grade.
Enzymatic reactions were conducted in 100 mM Tris/HCl buffer at pH 7.5, containing 500 mM NaCl, and 0.05% (w/v) CHAPS.
All protein and peptide containing solutions are handled in siliconized tubes (Life Systems Design, Merenschwand, Switzerland).
The compound solutions as well as the enzyme and the substrate solutions are transferred to the 384-well plates (black Cliniplate; cat. no. 95040020 Labsystems Oy, Finland) by means of a CyBi-Well 96-channel pipettor (CyBio AG, Jena, Germany).
as §2

For a further assay, the system named is human chymotrypsin. Kind of assay: Inhibition of human chymotrypsin. In kind it is biochemical.
A further assay has as its system Crl:NMRI mice. Nature of the assay: Anti-inflammatory activity in murine model of allergic contact dermatitis (ACD), oxazolone. In kind it is in vivo. The protocol:
Method: Crl:NMRI mice were sensitized on the shaved abdomen with 50 μl of 2% oxazolone on day 1 and challenged with 10 μl oxazolone on the inner surface of the right ear on day 8. The unchallenged left ears served as normal controls and dermatitis was evaluated from the difference in auricular weight (taken as a measure of inflammatory swelling) on day 9. The animals were treated topically with 10 μl test compound or the solvent only 30 min after the challenge. The efficacy of the treatment was calculated as the percentage inhibition of inflammatory auricular swelling relative to animals treated with the vehicle alone.

Setting [2] is: Table 14, concentration of test compound 10 mM.
Setting [3] is: Table 14, concentration of test compound 30 mM.
The mark [4] stands for this setting: Table 11, read-out: hKallikrein7 IC 50.
[5] abbreviates: Table 11, read-out: human neutrophile elastase IC 50.

Sequence of human kallikrein 7 (P49862 30-253): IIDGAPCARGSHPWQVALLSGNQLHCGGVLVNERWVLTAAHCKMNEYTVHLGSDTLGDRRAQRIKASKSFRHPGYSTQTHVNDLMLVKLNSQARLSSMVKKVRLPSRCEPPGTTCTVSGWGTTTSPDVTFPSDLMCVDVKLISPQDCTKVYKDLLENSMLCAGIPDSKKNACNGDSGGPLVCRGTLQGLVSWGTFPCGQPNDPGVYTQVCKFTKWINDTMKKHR

Regarding `CC(C)CC(=O)N[C@@H](CCC(N)=O)C(=O)N[C@@H]1C(=O)N[C@@H](CC(C)C)C(=O)NC2CC[C@H](O)N(C2=O)[C@@H](Cc2ccccc2)C(=O)N(C)[C@@H](Cc2ccc(O)cc2)C(=O)N[C@@H](C(C)C)C(=O)O[C@@H]1C` (stereo partly shown) [formula VIII], the IC50 on human kallikrein 7 (read-out: IC50 for human kallikrein 7) is less than 3 nM; in assay [1] (read-out: IC50 human neutrophile elastase), approximately 2.5 nM; in the assay on human chymotrypsin, approximately 4 nM.
In the case of `CCOC1CCC2NC(=O)C(CC(C)C)NC(=O)C(NC(=O)C(CCC(N)=O)NC(=O)C(C)C)C(C)OC(=O)C(C(C)CC)NC(=O)C(Cc3ccc(O)cc3)N(C)C(=O)C(C(C)CC)N1C2=O` (stereo not shown) [example 10], the IC50 amounted to 3.5 nM on human kallikrein 7 (hKallikrein7 IC 50, Table 11) and 9 nM in assay [1]. For the same molecule, the “% Inhibition of inflammatory swelling” value in the assay on Crl:NMRI mice (setting [2]) was 22%; with Crl:NMRI mice (setting [3]) it was 25%.
As to `CCC(C)C1NC(=O)C(Cc2ccc(O)cc2)N(C)C(=O)C(C(C)CC)N2C(=O)C(CCC2OCc2ccccc2)NC(=O)C(CC(C)C)NC(=O)C(NC(=O)C(CCC(N)=O)NC(=O)C(C)C)C(C)OC1=O` (stereo not shown) [example 9], the IC50 was 2 nM at human kallikrein 7 (hKallikrein7 IC 50, Table 11) and 3 nM in assay [1]. For the same molecule, the “% Inhibition of inflammatory swelling” value with Crl:NMRI mice (setting [2]) is on record as 42%; in the assay on Crl:NMRI mice (setting [3]), 38%.
Regarding `CCC(C)C1NC(=O)C(Cc2ccc(OCc3cc(C)n(C)n3)cc2)N(C)C(=O)C(C(C)CC)N2C(=O)C(CCC2O)NC(=O)C(CC(C)C)NC(=O)C(NC(=O)C(CCC(N)=O)NC(=O)C(C)C)C(C)OC1=O` (stereo not shown) [example 43], the IC50 was 0.2 nM on human kallikrein 7 (setting [4]) and 1 nM in assay [1] (setting [5]). Further, the “% Inhibition of inflammatory swelling” value in the assay with Crl:NMRI mice (setting [2]) is 42%; with Crl:NMRI mice (setting [3]) it was 55%.
On to `CC(C)CC(=O)N[C@@H](CCC(N)=O)C(=O)N[C@@H]1C(=O)N[C@@H](CC(C)C)C(=O)N2CCC[C@@H]2C(=O)N[C@@H](Cc2ccccc2)C(=O)N(C)[C@@H](Cc2ccc(O)cc2)C(=O)N[C@@H](C(C)C)C(=O)O[C@@H]1C` [formula IX] (Isovaleryl-QTL[dP]F[NMeY]V; ester 2-C), for which the IC50 on human kallikrein 7 (setting [4]) was determined as 1 nM; in assay [1] (setting [5]) it was 10 nM.
With `CCC(C)C(=O)N[C@@H](CCC(N)=O)C(=O)N[C@@H]1C(=O)N[C@@H](CC(C)C)C(=O)NC2CC[C@H](O)N(C2=O)[C@@H](C(C)CC)C(=O)N(C)[C@@H](Cc2ccc(O)cc2)C(=O)N[C@@H](C(C)CC)C(=O)O[C@@H]1C` (stereo partly shown) [formula III], the IC50 at human kallikrein 7 (hKallikrein7 IC50, Table 10) worked out at 0.4 nM; on human kallikrein 7 (hKallikrein7 IC 50, Table 11), 0.4 nM; in assay [1], 10 nM.
For `CCC(C)C1NC(=O)C(Cc2ccc(OC(=O)OC3CCC4(C)C(=CCC5C4CCC4(C)C(C(C)CCCC(C)C)CCC54)C3)cc2)N(C)C(=O)C(C(C)CC)N2CCCC(NC(=O)C(CC(C)C)NC(=O)C(NC(=O)C(CCC(N)=O)NC(=O)C(C)C)C(C)OC1=O)C2=O` (stereo not shown) [example 30], the IC50 at human kallikrein 7 (setting [4]) turned out to be 1050 nM; in assay [1] (setting [5]), 4550 nM.
The like results for `CCC(C)C1NC(=O)C(Cc2ccc(OC(=O)OCCOC)cc2)N(C)C(=O)C(C(C)CC)N2CCCC(NC(=O)C(CC(C)C)NC(=O)C(NC(=O)C(CCC(N)=O)NC(=O)C(C)C)C(C)OC1=O)C2=O` (stereo not shown) [example 28] were, in that order, 2.5 nM and 30 nM.
For `CCCOC1CCC2NC(=O)C(CC(C)C)NC(=O)C(NC(=O)C(CCC(N)=O)NC(=O)C(C)C)C(C)OC(=O)C(C(C)CC)NC(=O)C(Cc3ccc(OCC(=O)OC(C)(C)C)cc3)N(C)C(=O)C(C(C)CC)N1C2=O` (stereo not shown) [example 34] the same measures were 4 nM and 5 nM.
As to `CCC(C)C1NC(=O)C(Cc2ccc(O)cc2)N(C)C(=O)C(C(C)CC)N2C(=O)C(CCC2OCCOCCO)NC(=O)C(CC(C)C)NC(=O)C(NC(=O)C(CCC(N)=O)NC(=O)C(C)C)C(C)OC1=O` (stereo not shown) [example 15], the IC50 at human kallikrein 7 (hKallikrein7 IC 50, Table 11) stood at 15 nM; in assay [1], 5 nM.
For `CCC(C)C1NC(=O)C(Cc2ccc(O)cc2)N(C)C(=O)C(C(C)CC)N2C(=O)C(CCC2OCCOCCOC)NC(=O)C(CC(C)C)NC(=O)C(NC(=O)C(CCC(N)=O)NC(=O)C(C)C)C(C)OC1=O` (stereo not shown) [example 16] the same measures were 15 nM and 5 nM.
As to `CCC=CCOc1ccc(CC2C(=O)NC(C(C)CC)C(=O)OC(C)C(NC(=O)C(CCC(N)=O)NC(=O)C(C)C)C(=O)NC(CC(C)C)C(=O)NC3CCC(OCCC)N(C3=O)C(C(C)CC)C(=O)N2C)cc1` (stereo not shown) [example 35], the results for the IC50 (on human kallikrein 7 (setting [4]); in assay [1] (setting [5])) were 8.5 nM and 3 nM, respectively.
Consider `CCC(C)[C@@H]1NC(=O)[C@H](Cc2ccc(O)cc2)N(C)C(=O)[C@H](C(C)CC)N2C(=O)C(CC[C@@H]2O)NC(=O)[C@H](CC(C)C)NC(=O)[C@@H](NC(=O)[C@H](CCC(=O)O)NC(=O)C(C)C)[C@@H](C)OC1=O` (stereo partly shown) [example 47], for which the IC50 at human kallikrein 7 (hKallikrein7 IC 50, Table 11) came to 100 nM; in assay [1], 10 nM.
